Columns and labels:
[1] = Stability of the compound in simulated gastric fluid; format: ADME; settings: simulated gi fluid
[2] = Stability of the compound in PBS buffer/EtOH; format: physicochemical
Toll-like receptor 2 [3] = biological target: T1, Toll-like receptor 2 (Homo sapiens, UniProt O60603); assay: Antagonist activity at human TLR2 expressed in HEK-Blue cells assessed as inhibition of Pam3CSK4-induced TLR2/TLR1 activation by measuring decrease in NFkappaB activation pretreated for 2 hrs followed by incubation with agonist for 18 hrs by SEAP assay; format: cell-based, HEK-Blue hTLR2
T1 sequence (O60603 whole entry): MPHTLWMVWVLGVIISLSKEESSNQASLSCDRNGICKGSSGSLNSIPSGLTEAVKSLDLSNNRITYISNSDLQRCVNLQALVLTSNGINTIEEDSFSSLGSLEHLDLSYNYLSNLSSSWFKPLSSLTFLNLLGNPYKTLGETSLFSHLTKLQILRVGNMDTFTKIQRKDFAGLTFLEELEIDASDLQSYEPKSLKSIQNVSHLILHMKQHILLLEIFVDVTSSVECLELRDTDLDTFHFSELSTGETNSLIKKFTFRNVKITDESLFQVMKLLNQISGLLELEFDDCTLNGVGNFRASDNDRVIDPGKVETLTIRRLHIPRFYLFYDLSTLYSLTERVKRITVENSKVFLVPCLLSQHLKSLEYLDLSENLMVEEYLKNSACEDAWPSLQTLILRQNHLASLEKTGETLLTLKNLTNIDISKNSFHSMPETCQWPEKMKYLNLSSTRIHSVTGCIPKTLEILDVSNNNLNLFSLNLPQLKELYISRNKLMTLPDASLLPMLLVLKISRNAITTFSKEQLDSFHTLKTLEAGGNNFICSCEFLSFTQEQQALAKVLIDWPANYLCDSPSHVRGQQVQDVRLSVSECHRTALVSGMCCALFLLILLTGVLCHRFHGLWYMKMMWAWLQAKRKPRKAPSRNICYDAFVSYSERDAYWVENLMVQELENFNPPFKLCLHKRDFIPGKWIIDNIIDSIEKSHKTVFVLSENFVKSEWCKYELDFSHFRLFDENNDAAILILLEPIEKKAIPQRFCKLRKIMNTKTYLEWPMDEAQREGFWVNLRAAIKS

Toll-like receptor 2 [4] = biological target: T1, Toll-like receptor 2; assay: Antagonist activity at human TLR2 expressed in HEK-Blue cells assessed as inhibition of Pam2CSK4-induced TLR2/TLR6 activation by measuring decrease in NFkappaB activation pretreated for 2 hrs followed by incubation with agonist for 18 hrs by SEAP assay; format: cell-based, HEK-Blue hTLR2

| SMILES | Stabilty [1] [h] | Stabilty [2] [h] | IC50 (Toll-like receptor 2 [3]) [µM] | IC50 (Toll-like receptor 2 [4]) [µM] |
| --- | --- | --- | --- | --- |
| CCCCC/C=C\CCCCCCCOCC(CNC(=O)c1cccc(C2CCNCC2)c1)OCCCCCCC/C=C\CCCCC (configuration not stated) |  |  | 18.5 | 16.9 |
| CCCCCCCCCCCCCCOCC(CNC(=O)C(CC1CCNCC1)NC(=O)OCC1c2ccccc2-c2ccccc21)OCCCCCCCCCCCCCC (configuration not stated) |  |  | 1.8 | 16.7 |
| CCCCC/C=C\C/C=C\CCCCCCCCOCC(CNC(=O)c1cccc(C2CCNCC2)c1)OCCCCCCCC/C=C\C/C=C\CCCCC (configuration not stated) |  |  | 3.3 | 16.1 |
| CCCCCCCCCCCCCCOCC(CNC(=O)C1(NC(=O)OCc2ccccc2)CCNCC1)OCCCCCCCCCCCCCC (configuration not stated) |  |  | 2.6 | > 30 |
| CCCCCCCOCCNC(=O)[C@H](CCCCN)NCc1ccccc1 |  |  | 22.6 | 13.7 |
| CCCCCCCCCCCCCCOCC(CNC(=O)[C@H](CCCCN)NC(=O)OCC1c2ccccc2-c2ccccc21)OCCCCCCCCCCCCCC (some centres not stated) |  |  | 1.6 | > 30 |
| CCCCCCCCCCCCCCOCC(CNC(=O)CC[C@H](NC(=O)OCC1c2ccccc2-c2ccccc21)C(=O)O)OCCCCCCCCCCCCCC (some centres not stated) |  |  | 8.7 | 13.3 |
| CCCCCCCCCCCCCCNC(=O)[C@H](CCCCN)NCc1ccccc1 |  |  | 14.5 | 11.3 |
| CCCCCCCOC(CNC(=O)[C@H](CCCCN)NCc1ccccc1)COC (some centres not stated) |  |  | > 30 | > 30 |

The remaining lines, values ahead:

| Stabilty [1] [h] | Stabilty [2] [h] | IC50 (Toll-like receptor 2 [3]) [µM] | IC50 (Toll-like receptor 2 [4]) [µM] | SMILES |
| --- | --- | --- | --- | --- |
| > 1 | > 1 |  |  | CCCCCCCCCCCCCCOCC(CNC(=O)c1cccc(C2CCNCC2)c1)OCCCCCCCCCCCCCC.Cl (configuration not stated) |
|  |  | > 20 | > 30 | CCCCCCCCCCCCCCOCC(CNC(=O)CCCCCN)OCCCCCCCCCCCCCC (configuration not stated) |
| > 1 | > 1 |  |  | CCCCCCCCCCCCCCOCC(CNC(=O)[C@@H](CCCCN)NCc1ccccc1)OCCCCCCCCCCCCCC.Cl (some centres not stated) |
|  |  | 2.9 | > 30 | CCCCCCCCCCCCCCOCC(CNC(=O)[C@H](CCCCN)NCc1ccc(F)cc1)OCCCCCCCCCCCCCC (some centres not stated) |
|  |  | 2.3 | > 30 | CCCCCCCCCCCCCCOCC(CNC(=O)[C@@H](CCCCN)NC(=O)OCc1ccccc1)OCCCCCCCCCCCCCC (some centres not stated) |
|  |  | 2.8 | 27.9 | CCCCCCCCCCCCCCOCC(CNC(=O)[C@H](CCCCN)NCc1ccc(-c2ccccc2)cc1)OCCCCCCCCCCCCCC (some centres not stated) |
|  |  | 14.3 | > 30 | CCCCCCCCCCCCCCOCC(CNC(=O)[C@H]1CCCN1)OCCCCCCCCCCCCCC (some centres not stated) |

From ChEMBL document CHEMBL4819038, “Structure based design and synthesis of novel Toll-like Receptor 2 (TLR 2) lipid antagonists” (Bioorg Med Chem Lett, 2021)
